From US10508085B2, “Compounds and methods for IDO and TDO modulation, and indications therefor” (Plexxikon Inc., priority 2016, dated 2019)
Like-named read-outs stand apart in the source and are kept apart here.

Legend:
[1] = molecular target: T1, Human Indoleamine 2,3-dioxygenase (IDO) (Homo sapiens, UniProt P14902); test: Human IDO enzymatic assay (kynurenine level); assay type: biochemical; settings: 6 nM IDO, 10 μM L-Trp; geometric mean; read-out: IDO1 GMean: IC50 (μM) (Biochemical Assay)
T1 construct: His tag (N); made in house; host or cells: E. coli
T1 sequence (P14902 whole entry): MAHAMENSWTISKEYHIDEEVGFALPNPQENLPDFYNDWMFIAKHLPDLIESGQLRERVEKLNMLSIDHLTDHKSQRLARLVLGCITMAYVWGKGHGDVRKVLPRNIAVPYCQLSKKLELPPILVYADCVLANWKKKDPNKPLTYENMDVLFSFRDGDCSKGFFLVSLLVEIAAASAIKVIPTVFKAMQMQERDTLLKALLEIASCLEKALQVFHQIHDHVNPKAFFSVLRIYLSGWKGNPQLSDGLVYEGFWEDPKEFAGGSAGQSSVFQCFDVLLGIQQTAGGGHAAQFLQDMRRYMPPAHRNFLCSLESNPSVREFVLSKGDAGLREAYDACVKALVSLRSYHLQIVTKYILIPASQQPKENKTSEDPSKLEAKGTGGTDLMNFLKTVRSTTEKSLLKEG
In short: (§1)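 Reactions were stopped with TCA, converting N-formylkynurenine to kynurenine for quantitation, with IC50 by nonlinear regression. IDO: 6 nM enzyme, 10 μM L-Trp, 20 min RT. TDO: 1 nM enzyme, 350 μM L-Trp, 70 min RT, both in pH 6.5 buffer.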

[2] = molecular target: T2, Human Tryptophan 2,3-dioxygenase (TDO) (Homo sapiens, UniProt P48775); test: Human TDO enzymatic assay (kynurenine level); assay type: biochemical; settings: 1 nM TDO, 350 μM L-Trp; geometric mean; read-out: TDO GMean: IC50 (μM) (Biochemical Assay)
T2 construct: His tag (N); made in house; host or cells: E. coli
T2 sequence (P48775 whole entry): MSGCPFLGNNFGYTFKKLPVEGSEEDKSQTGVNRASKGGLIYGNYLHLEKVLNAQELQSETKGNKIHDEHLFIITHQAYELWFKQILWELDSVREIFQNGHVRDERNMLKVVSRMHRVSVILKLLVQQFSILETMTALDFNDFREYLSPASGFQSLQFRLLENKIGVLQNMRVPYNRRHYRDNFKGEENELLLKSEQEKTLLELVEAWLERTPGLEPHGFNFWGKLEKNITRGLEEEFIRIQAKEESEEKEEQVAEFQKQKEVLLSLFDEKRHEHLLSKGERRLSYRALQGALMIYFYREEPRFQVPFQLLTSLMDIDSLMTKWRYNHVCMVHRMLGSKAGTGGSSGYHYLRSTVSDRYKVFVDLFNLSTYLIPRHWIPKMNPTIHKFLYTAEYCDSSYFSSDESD
In short: as §1

[3] = molecular target: T3, human IDO (IDO1-expressing HEK293 cells) (Homo sapiens, UniProt P14902); test: Cell based kynurenine assay, IDO1-expressing HEK293 cell clones; settings: IDO1-expressing HEK293 cells, geometric mean, read-out: HEK293 IDO1 Kynurenine GMean IC50 (μM) (Cellular Assay)
T3 construct: expressed in transfected cells
T3 sequence (P14902 whole entry): as the sequence (P14902 whole entry) above
In short: (§2)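 Kynurenine in culture supernatant read after 24 h compound exposure of HEK293 cells stably expressing human IDO1 or TDO. IC50 from nonlinear regression of % inhibition relative to 0.2% DMSO cell (high) and media-only (low) controls.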

[4] = molecular target: T4, human TDO (TDO-expressing HEK293 cells) (Homo sapiens, UniProt P48775); test: Cell based kynurenine assay, TDO-expressing HEK293 cell clones; settings: TDO-expressing HEK293 cells, geometric mean, read-out: HEK293 TDO Kynurenine GMean IC50 (μM) (Cellular Assay)
T4 construct: expressed in transfected cells
T4 sequence (P48775 whole entry): as the sequence (P48775 whole entry) above
In short: as §2

Compound: OC(c1cc(Cl)cc2cn[nH]c12)C12CCC(CC1)CC2 (stereo not shown) [Compound P-0208, bicyclo[2.2.2]octan-1-yl(5-chloro-1H-indazol-7-yl)methanol]
- IC50 [1]: 0.0001 to 10 µM
- IC50 [2]: 0.0001 to 10 µM
- IC50 ([3]; 24 hours incubation): 0.0001 to 10 µM
- IC50 ([4]; 24 hours incubation): 0.0001 to 10 µM

Compound: O=C(NC1CC1)N1CCC(C(F)(F)C(O)c2cc(Cl)cc3cn[nH]c23)CC1 (stereo not shown) [Compound P-0185, 4-(2-(5-chloro-1H-indazol-7-yl)-1,1-difluoro-2-hydroxyethyl)-N-cyclopropylpiperidine-1-carboxamide]
- IC50 [1]: 0.0001 to 10 µM
- IC50 [2]: 0.0001 to 10 µM
- IC50 ([3]; 24 hours incubation): 0.0001 to 10 µM
- IC50 ([4]; 24 hours incubation): 0.0001 to 10 µM

Compound: CCCC(=O)N1CCC(C(C)(C)C(O)c2cc(Cl)cc3cn[nH]c23)CC1 (stereo not shown) [Compound P-0460, 1-(4-(1-(5-chloro-1H-indazol-7-yl)-1-hydroxy-2-methylpropan-2-yl)piperidin-1-yl)butan-1-one]
- IC50 [1]: 0.0001 to 10 µM
- IC50 [2]: 0.0001 to 10 µM
- IC50 ([3]; 24 hours): 0.0001 to 10 µM
- IC50 ([4]; 24 hours): 0.0001 to 10 µM

Compound: O=S(=O)(C1CC1)N1CCC2(CC1)CC(O)(c1cc(Cl)cc3cn[nH]c13)C2 [Compound P-0035, 2-(5-chloro-1H-indazol-7-yl)-7-(cyclopropylsulfonyl)-7-azaspiro[3.5]nonan-2-ol]
- IC50 [1]: 0.0001 to 10 µM
- IC50 [2]: 0.0001 to 10 µM
- IC50 ([3]; 24 hours incubation): > 10 µM
- IC50 ([4]; 24 hours incubation): 0.0001 to 10 µM

Compound: CC1(C(O)c2cc(Cl)cc3cn[nH]c23)CC(F)(F)C1 (stereo not shown) [Compound P-0018, (5-chloro-1H-indazol-7-yl)(3,3-difluoro-1-methylcyclobutyl)methanol]
- IC50 [1]: 0.0001 to 10 µM
- IC50 [2]: 0.0001 to 10 µM
- IC50 ([3]; 24 hours incubation): 0.0001 to 10 µM
- IC50 ([4]; 24 hours incubation): 0.0001 to 10 µM

Compound: OC(c1cc(Cl)cc2cn[nH]c12)C1CCC1 (stereo not shown) [Compound P-0116, (5-chloro-1H-indazol-7-yl)(cyclobutyl)methanol]
- IC50 [1]: 0.0001 to 10 µM
- IC50 [2]: 0.0001 to 10 µM
- IC50 ([3]; 24 hours incubation): 0.0001 to 10 µM
- IC50 ([4]; 24 hours incubation): 0.0001 to 10 µM

Compound: O=C(NCC1CCOCC1)N1CCC(C(F)(F)C(O)c2cc(Cl)cc3cn[nH]c23)CC1 (stereo not shown) [Compound P-0468, 4-(2-(5-chloro-1H-indazol-7-yl)-1,1-difluoro-2-hydroxyethyl)-N-((tetrahydro-2H-pyran-4-yl)methyl)piperidine-1-carboxamide]
- IC50 [1]: 0.0001 to 10 µM
- IC50 [2]: 0.0001 to 10 µM
- IC50 ([3]; 24 hours): 0.0001 to 10 µM
- IC50 ([4]; 24 hours): 0.0001 to 10 µM

Compound: CC(C)(C(O)c1cc(Cl)cc2cn[nH]c12)[C@H]1C[C@H]2CC[C@@H](C1)N2C(=O)Nc1ccc(F)cc1 (stereo partly drawn) [Compound P-0440, (1R,3r,5S)-3-(1-(5-chloro-1H-indazol-7-yl)-1-hydroxy-2-methylpropan-2-yl)-N-(4-fluorophenyl)-8-azabicyclo[3.2.1] octane-8-carboxamide]
- IC50 [1]: 0.0001 to 10 µM
- IC50 [2]: 0.0001 to 10 µM
- IC50 ([3]; 24 hours): 0.0001 to 10 µM
- IC50 ([4]; 24 hours): 0.0001 to 10 µM

Compound: CC(C)(C1CCN(C(=O)Nc2cccc(C#N)c2)CC1)C(O)c1cc(Cl)cc2cn[nH]c12 (stereo not shown) [Compound P-0360, 4-(1-(5-chloro-1H-indazol-7-yl)-1-hydroxy-2-methylpropan-2-yl)-N-(3-cyanophenyl) piperidine-1-carboxamide]
- IC50 [1]: 0.0001 to 10 µM
- IC50 [2]: 0.0001 to 10 µM
- IC50 ([3]; 24 hours incubation): 0.0001 to 10 µM
- IC50 ([4]; 24 hours incubation): 0.0001 to 10 µM

Compound: OC(c1c(F)c(Cl)c(F)c2cn[nH]c12)C1(C(F)(F)F)CCC1 (stereo not shown) [Compound P-0265, (5-chloro-4,6-difluoro-1H-indazol-7-yl)(1-(trifluoromethyl)cyclobutyl)methanol]
- IC50 [1]: 0.0001 to 10 µM
- IC50 [2]: 0.0001 to 10 µM
- IC50 ([3]; 24 hours incubation): 0.0001 to 10 µM
- IC50 ([4]; 24 hours incubation): 0.0001 to 10 µM

Compound: OC(c1cc(Cl)cc2cn[nH]c12)C(C1CC1)C1CC1 (stereo not shown) [Compound P-0204, 1-(5-chloro-1H-indazol-7-yl)-2,2-dicyclopropylethan-1-ol]
- IC50 [1]: 0.0001 to 10 µM
- IC50 [2]: 0.0001 to 10 µM
- IC50 ([3]; 24 hours incubation): 0.0001 to 10 µM
- IC50 ([4]; 24 hours incubation): 0.0001 to 10 µM

Compound: CC(C)(C1CCN(C(=O)NCC2CC2)CC1)[C@H](O)c1cc(Cl)cc2cn[nH]c12 [Compound P-0560, (S)-4-(1-(5-chloro-1H-indazol-7-yl)-1-hydroxy-2-methylpropan-2-yl)-N-(cyclopropylmethyl) piperidine-1-carboxamide]
- IC50 [1]: 0.0001 to 10 µM
- IC50 [2]: 0.0001 to 10 µM
- IC50 ([3]; 24 hours): 0.0001 to 10 µM
- IC50 ([4]; 24 hours): 0.0001 to 10 µM

Compound: CC(C)(C1CCN(C(=O)Nc2cccc(F)c2)CC1)C(O)c1cc(Cl)cc2cn[nH]c12 (stereo not shown) [Compound P-0359, 4-(1-(5-chloro-1H-indazol-7-yl)-1-hydroxy-2-methylpropan-2-yl)-N-(3-fluorophenyl) piperidine-1-carboxamide]
- IC50 [1]: 0.0001 to 10 µM
- IC50 [2]: 0.0001 to 10 µM
- IC50 ([3]; 24 hours incubation): 0.0001 to 10 µM
- IC50 ([4]; 24 hours incubation): 0.0001 to 10 µM
